Source: patent publication US20120214862A1, “MODULATION OF FACTOR 7 EXPRESSION” (ISIS Pharmaceuticals, Inc., priority 2009, published 2012)
In the oligonucleotide strings, read from the 5' end, every base follows the letter of its sugar. An asterisk marks phosphorothioate; unmarked linkages are phosphodiester. Other units and linkages are bracketed, terminal groups are in braces. A string of capitals states the bases alone. e = 2'-O-(2-methoxyethyl) (MOE); [5mC] = 5-methylcytosine; d = 2'-deoxy (DNA)

Columns and labels:
human Factor 7 mRNA [1] = assay: Dose-dependent antisense inhibition of human Factor 7 in HepB3 cells, transfection with lipofectin; type: cell-based; conditions: for percent inhibition of Factor 7 mRNA, 3.125 nM / percent inhibition of Factor 7 mRNA, 6.25 nM / percent inhibition of Factor 7 mRNA, 12.5 nM / percent inhibition of Factor 7 mRNA, 25.0 nM / percent inhibition of Factor 7 mRNA, 50.0 nM / percent inhibition of Factor 7 mRNA, 100.0 nM: HepB3, lipofectin, ~16 h; for percent inhibition of Factor 7 mRNA, relative to untreated control cells: lipofectin, HepB3 cells, 16 hours
Procedure: Cells were plated at a density of 4,000 cells per well and treated with lipofectin reagent with 3.125 nM, 6.25 nM, 12.5 nM, 25 nM, 50 nM, and 100 nM concentrations of antisense oligonucleotide, as indicated in Table 3. After a treatment period of approximately 16 hours, RNA was isolated from the cells and Factor 7 mRNA levels were measured by real-time RT-PCR, as described herein. Human Factor 7 primer probe set RTS 2927 (forward sequence: […], incorporated herein as SEQ ID NO: 164; reverse sequence: […], incorporated herein as SEQ ID NO: 165; probe sequence: TGGGTGGTCTCCGCGGCCX, incorporated herein as SEQ ID NO: 166) was used to measure mRNA levels. Factor 7 mRNA levels were adjusted according to total RNA content as measured by RIBOGREEN®. Results are presented as percent inhibition of Factor 7, relative to untreated control cells.
Cells were plated at a density of 4,000 cells per well and transfected using lipofectin reagent with 6.25 nM, 12.5 nM, 25.0 nM, 50.0 nM, and 100.0 nM concentrations of antisense oligonucleotide, as indicated in Table 7. After a treatment period of approximately 16 hours, RNA was isolated from the cells and Factor 7 mRNA levels were measured by real-time RT-PCR, as described herein. Human Factor 7 primer probe set RTS 2927 was used to measure mRNA levels. Factor 7 mRNA levels were adjusted according to total RNA content as measured by RIBOGREEN®. Results are presented as percent inhibition of Factor 7, relative to untreated control cells.
Cells were plated at a density of 4,000 cells per well and transfected using lipofectin reagent with 3.125 nM, 6.25 nM, 12.5 nM, 25 nM, 50 nM, and 100 nM concentrations of antisense oligonucleotide, as specified in Table 14. After a treatment period of approximately 16 hours, RNA was isolated from the cells and Factor 7 mRNA levels were measured by quantitative real-time PCR. Human Factor 7 primer probe set RTS 2927 was used to measure mRNA levels. Factor 7 mRNA levels were adjusted according to total RNA content, as measured by RIBOGREEN®. Results are presented as percent inhibition of Factor 7, relative to untreated control cells.

human Factor 7 mRNA [2] = assay: Antisense inhibition of human Factor 7 mRNA in HepB3 cells, lipofectin, 50 nM, real-time RT-PCR; type: cell-based; conditions: for % Inhibition (human Factor 7 mRNA): 50 nM, ~24 h
Procedure, shortened: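 4,000 cells/well; ~24 h exposure; RNA isolated; probe set RTS 2927; normalised to RIBOGREEN® total RNA; % inhibition vs untreated.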

[3] = Example 1, HepB3 cells, lipofectin, relative to untreated control cells
[4] = HepB3 cells, lipofectin, 50 nM antisense oligonucleotide, approximately 24 hours, primer probe set RTS 2927, relative to untreated control

Substance | percent inhibition of Factor 7 mRNA, 3.125 nM (human Factor 7 mRNA [1]; Example 2, 3.125 nM) [%] | percent inhibition of Factor 7 mRNA, 6.25 nM (human Factor 7 mRNA [1]; Example 2) [%] | percent inhibition of Factor 7 mRNA, 12.5 nM (human Factor 7 mRNA [1]; Example 2, 12.5 nM) [%] | percent inhibition of Factor 7 mRNA, 25.0 nM (human Factor 7 mRNA [1]; Example 2) [%] | percent inhibition of Factor 7 mRNA, 50.0 nM (human Factor 7 mRNA [1]; Example 2) [%] | percent inhibition of Factor 7 mRNA, 100.0 nM (human Factor 7 mRNA [1]; Example 2) [%] | % Inhibition (human Factor 7 mRNA) (human Factor 7 mRNA [2]; [3]) [%] | % Inhibition of human Factor 7 mRNA levels (human Factor 7 mRNA [2]; [4]) [%] | percent inhibition of Factor 7 mRNA, 6.25 nM (human Factor 7 mRNA [1]; Example 5) [%] | percent inhibition of Factor 7 mRNA, 12.5 nM (human Factor 7 mRNA [1]; Example 5, 12.5 nM) [%] | percent inhibition of Factor 7 mRNA, 25.0 nM (human Factor 7 mRNA [1]; Example 5) [%] | percent inhibition of Factor 7 mRNA, 50.0 nM (human Factor 7 mRNA [1]; Example 5) [%] | percent inhibition of Factor 7 mRNA, 100.0 nM (human Factor 7 mRNA [1]; Example 5) [%] | also measured
407606 (antisense e[5mC]*eT*eG*eG*eT*d[5mC]*d[5mC]*dT*dT*dG*d[5mC]*dA*dG*dG*dA*eG*e[5mC]*e[5mC]*e[5mC]*e[5mC]) [compound 407606] | 20 | 0 | 49 | 55 | 83 | 84 | 89 | 57 | – | – | – | – | – | –
407910 (antisense eA*eG*eT*e[5mC]*e[5mC]*dT*dT*dG*d[5mC]*dT*dG*d[5mC]*d[5mC]*dA*dT*e[5mC]*e[5mC]*eG*eA*eG) [compound 407910] | 31 | 44 | 69 | 68 | 82 | 89 | 86 | 72 | – | – | – | – | – | –
422294 (antisense eG*eA*dG*dT*dT*d[5mC]*dT*dG*d[5mC]*dA*dG*dG*dA*dG*d[5mC]*eG*eG*e[5mC]*e[5mC]*eT) [compound 422294] | – | – | – | – | – | – | – | – | – | – | – | – | – | percent inhibition of Factor 7 mRNA, relative to untreated control cells (human Factor 7 mRNA [1]; 3.125 nM): 9%; percent inhibition of Factor 7 mRNA, relative to untreated control cells (human Factor 7 mRNA [1]; 12.5 nM): 32%; percent inhibition of Factor 7 mRNA, relative to untreated control cells (human Factor 7 mRNA [1]; 25 nM): 61%; percent inhibition of Factor 7 mRNA, relative to untreated control cells (human Factor 7 mRNA [1]; 50 nM): 77%; percent inhibition of Factor 7 mRNA, relative to untreated control cells (human Factor 7 mRNA [1]; 100 nM): 84%; percent inhibition of Factor 7 mRNA, relative to untreated control cells (human Factor 7 mRNA [1]): 21%; % Inhibition of human Factor 7 mRNA levels (human Factor 7 mRNA [2]; HepB3 cells, gapmers (5-10-5, 3-14-3, 2-13-5 MOE) targeted to nucleobases 4868 to 4899 of SEQ ID NO: 1): 78%
407643 (antisense e[5mC]*eA*e[5mC]*eA*e[5mC]*dA*dT*dG*dG*dA*dG*dT*d[5mC]*dA*dG*e[5mC]*eA*eT*e[5mC]*eG) [compound 407643] | 16 | 59 | 68 | 76 | 92 | 95 | 84 | 80 | 36 | 49 | 70 | 83 | 93 | % Inhibition (human Factor 7 mRNA) (human Factor 7 mRNA [2]; Example 6 microwalk, nucleobases 15098 to 15122 of SEQ ID NO: 1, HepB3, lipofectin): 69%
416507 (antisense eG*eG*eT*eT*eA*d[5mC]*dT*dG*dA*dG*d[5mC]*dG*d[5mC]*dG*dG*eA*eA*eG*eA*eA) [compound 416507] | – | – | – | – | – | – | – | 73 | 30 | 53 | 70 | 77 | 72 | –
416449 (antisense eT*eA*eG*eG*eT*dA*dT*dT*dT*dT*dT*d[5mC]*d[5mC]*dA*d[5mC]*eA*eT*eG*eG*eA) [compound 416449] | – | – | – | – | – | – | – | 68 | 19 | 33 | 45 | 65 | 85 | –
407641 (antisense e[5mC]*e[5mC]*eT*eG*eA*dG*dG*d[5mC]*d[5mC]*dA*dG*d[5mC]*dA*dG*dA*eT*e[5mC]*eA*e[5mC]*eG) [compound 407641] | 53 | 53 | 71 | 84 | 88 | 89 | 94 | 73 | – | – | – | – | – | % Inhibition of human Factor 7 mRNA levels (human Factor 7 mRNA [2]; HepB3 cells, gapmers targeted to nucleobases 14707 to 14732 of SEQ ID NO: 1 (Table 11)): 68%
407594 (antisense e[5mC]*e[5mC]*eT*eG*e[5mC]*dA*dG*d[5mC]*d[5mC]*dA*dG*dG*d[5mC]*dA*dG*e[5mC]*e[5mC]*e[5mC]*eT*eG) [compound 407594] | 10 | 34 | 63 | 77 | 84 | 80 | 87 | – | – | – | – | – | – | –
407900 (antisense e[5mC]*e[5mC]*e[5mC]*e[5mC]*eA*d[5mC]*dA*dA*dT*dT*d[5mC]*dG*dG*d[5mC]*d[5mC]*eT*eT*eG*eG*eG) [compound 407900] | 52 | 58 | 80 | 87 | 94 | 91 | 91 | 78 | 18 | 36 | 61 | 82 | 91 | –
416549 (antisense eG*eA*e[5mC]*eA*eA*dT*dG*dG*dT*d[5mC]*dA*dG*dG*dG*d[5mC]*eT*eG*eG*eT*eT) [compound 416549] | – | – | – | – | – | – | – | 68 | 38 | 44 | 63 | 73 | 78 | % Inhibition of human Factor 7 mRNA levels (human Factor 7 mRNA [2]; HepB3 cells, gapmers targeted to nucleobases 11830 to 11869 of SEQ ID NO: 1 (Table 9)): 69%
416446 (antisense eG*eG*eT*e[5mC]*eA*d[5mC]*dT*dG*d[5mC]*dA*dG*dT*dA*d[5mC]*dT*eG*e[5mC]*eT*e[5mC]*eA) [compound 416446] | – | – | – | – | – | – | – | 64 | 25 | 24 | 50 | 69 | 64 | –
